Source: patent US6656911B2, “Serine protease inhibitors” (Cortech, Inc., priority 1994, dated 2003)

What was measured:
[1] = target: T1, human neutrophil elastase (HNE) (Homo sapiens, UniProt P08246); experiment: HNE Ki of CE compounds, tested as described in WO 96/16080; format: biochemical; details: read-out: HNE Ki
T1 sequence (P08246 30-267): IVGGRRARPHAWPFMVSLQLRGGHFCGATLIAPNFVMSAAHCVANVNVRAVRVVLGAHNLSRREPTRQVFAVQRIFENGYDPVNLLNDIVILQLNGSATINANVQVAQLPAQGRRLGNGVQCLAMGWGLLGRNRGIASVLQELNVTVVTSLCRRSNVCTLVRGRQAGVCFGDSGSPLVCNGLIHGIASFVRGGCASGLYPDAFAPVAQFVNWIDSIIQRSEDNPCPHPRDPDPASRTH

[2] = Blood level screening after oral dose; format: in vivo, Sprague-Dawley rats; details: rat, oral gavage 10 mg/kg; for concentration at 3 h: read-out: Plasma Levels (μM) 3 hr
Description: The inhibitors were dissolved or suspended in polyethylene glycol (PEG), PEG-400 or PEG:H2O:EtOH at a concentration of 10 mg/ml. Unfasted male Sprague-Dawley rats were given an oral dose of this solution by gavage. Rats received 10 mg inhibitor/kg body weight in a volume of 1 ml/kg. After 1,3 or 6 hr., the rats were killed with an overdose of urethane (2.5 g/kg; i.p.) and the blood collected in a heparinized tube via cardiac puncture. Red blood cells were separated from the plasma by centrifugation.
Depending on the inhibitor, one of four organics (ethyl acetate, toluene, isopropyl ether or methyl t-butyl ether) was used to extract the compound from the plasma. Inhibitor concentrations were measured by HPLC or LC/MS analysis.

Ki [1] [nM] | concentration at 3 h ([2]; male, Sprague-Dawley, plasma) [µM] | Plasma Levels (μM) 3 hr [2] [µM] | Plasma Levels (μM) 1 hr ([2]; 1 hr) [µM] | Plasma Levels (μM) 6 hr ([2]; 6 hr) [µM] | concentration at 1 h ([2]; male, Sprague-Dawley, plasma, 1 hr, read-out: Plasma Levels (μM) 1 hr) [µM] | concentration at 6 h ([2]; male, Sprague-Dawley, plasma, 6 hr, read-out: Plasma Levels (μM) 6 hr) [µM] | Compound
17 | 0.034 |  |  |  |  |  | Cc1cccc(Cc2nnc(C(=O)[C@@H](NC(=O)CN(Cc3ccccc3)C(=O)c3ccc[nH]3)C(C)C)o2)c1 [CE2164, (Pyrrole-2-carbonyl)-N-(benzyl)glycyl-N-[1-(2-[5-(3-methylbenzyl)-1,3,4-oxadiazolyl]carbonyl)-2-(S)-methylpropyl]amide]
2.6 | 0.067 |  |  |  |  |  | CC(=O)N1c2ccccc2C[C@H]1C(=O)N[C@H](C(=O)c1nnc(Cc2cccc(C)c2)o1)C(C)C [CE2165, N-Acetyl-2-(L)-(2,3-dihydro-1H-indole)-N-[1-(2-[5-(3-methylbenzyl) 1,3,4-oxadiazolyl]carbonyl)-2-(S)-methylpropyl]amide]
2.2 | 0.021 |  |  |  |  |  | CC(C)[C@H](NC(=O)[C@@H]1CCCN1C(=O)[C@@H](NS(C)(=O)=O)C(C)C)C(=O)c1noc(Cc2cccc(C(F)(F)F)c2)n1 [CE2172, Methylsulfonyl-L-valyl-N-[1-(3-[5-(3-trifluoromethylbenzyl)-1,2,4-oxadiazolyl]carbonyl)-2-(S)-methylpropyl]-L-prolinamide]
79 |  | 0.004 |  |  |  |  | CC(C)[C@H](NC(=O)CN1C(=O)NC(=Cc2cccnc2)C1=O)C(=O)c1noc(Cc2cccc(C(F)(F)F)c2)n1 [CE2203, [4-(R)-(3-pyridylmethylene)]-2,5-imidazolidinedione-N-[1-(3-[5-(3-trifluoromethylbenzyl)-1,2,4-oxadiazolyl]carbonyl)-2-(S)-methylpropyl]acetamide]
7.4 | 0.48 |  |  |  |  |  | Cc1cccc(Cc2nnc(C(=O)[C@@H](NC(=O)CN3C[C@@H](c4ccccc4)N(C(=O)OCc4ccccc4)CC3=O)C(C)C)o2)c1 [CE2204, 1-Benzyloxycarbonyl-(2-(R)-phenylpiperazin-5-one)-N-[-(2-[5-(3-methylbenzyl)-1,3,4-oxadiazolyl]carbonyl)-2-(S)-methylpropyl]acetamide]
37 |  | 0.475 |  |  |  |  | CCc1cccc(Cc2nnc(C(=O)[C@@H](NC(=O)CN3C(=O)NC(=Cc4cccnc4)C3=O)C(C)C)o2)c1 [CE2205, [4-(R)-(3-pyridylmethylene)]-2,5-imidazolidinedione-N-[1-(2-[5-(3-ethylbenzyl)-1,3,4-oxadiazolyl]carbonyl)-2-(S)-methylpropyl]acetamide]
36.4 |  | 0 |  |  |  |  | CC(C)[C@H](NC(=O)CN1C(=O)NC(c2ccncc2)(N2C(=O)CCC2=O)C1=O)C(=O)c1noc(Cc2cccc(C(F)(F)F)c2)n1 (stereo partly drawn) [CE2209, [4-(R,S)-(4-pyridyl)-4-(R,S)-N-succinimidyl]-2,5-imidazolidinedione-N-[1-(3-[5-(3-trifluoromethylbenzyl)-1,2,4-oxadiazolyl]carbonyl)-2-(S)-methylpropyl]acetamide]
0.14 | 0.19 |  |  |  |  |  | COC(=O)N[C@H](C(=O)N1CCC[C@H]1C(=O)N[C@H](C(=O)c1nnc(Cc2cccc(C)c2)o1)C(C)C)C(C)C [CE2213, Methyloxycarbonyl-L-valyl-N-[1-(2-[5-(3-methylbenzyl)-1,3,4-oxadiazolyl]carbonyl)-2-(S)-methylpropyl]-L-prolinamide]
0.92 | 0 |  |  |  |  |  | COC(=O)N[C@H](C(=O)N1CCC[C@H]1C(=O)N[C@H](C(=O)c1noc(Cc2cccc(C(F)(F)F)c2)n1)C(C)C)C(C)C [CE2214, Methyloxycarbonyl-L-valyl-N-[1-(3-[5-(3 trifluoromethylbenzyl)-1,2,4-oxadiazolyl]carbonyl)-2-(S)-methylpropyl]-L-prolinamide]
163 |  | 0.83 | 1.16 | 0.63 |  |  | Cc1cccc(Cc2nnc(C(=O)[C@@H](NC(=O)Cn3c(=O)ncc4ccccc43)C(C)C)o2)c1 [CE2215, 1,4-Quinazolin-2-one-N-[1-(2-[5-(3-methylbenzyl)-1,3,4-oxadiazolyl]carbonyl)-2-(S)-methylpropyl]acetamide]
40 |  | 0.74 | 1.276 | 0.962 |  |  | Cc1cccc(Cc2nnc(C(=O)[C@@H](NC(=O)CN3C(=O)N[C@@H](CC(C)C)C3=O)C(C)C)o2)c1 [CE2227, 4-(S)-(2-Isobutyl)-2,5-imidazolidinedione-N-[1-(2-[5-(3-methylbenzyl)-1,3,4-oxadiazolyl]carbonyl)-2-(S)-methylpropyl]acetamide]
16 |  | 0.787 | 1.226 | 0.531 |  |  | Cc1cccc(Cc2nnc(C(=O)[C@@H](NC(=O)CN3C(=O)NC4(CCCC4)C3=O)C(C)C)o2)c1 [CE2231, 4-Spirocyclopentane-2,5-imidazolidinedione-N-[1-(2-[5-(3-methylbenzyl)-1,3,4-oxadiazolyl]carbonyl)-2-(S)-methylpropyl]acetamide]
0.15 | 0.44 |  |  |  | 0.44 | 0.26 | Cc1cccc(Cc2nnc(C(=O)[C@@H](NC(=O)CN(C(=O)[C@@H](NC(=O)OCc3ccccc3)C(C)C)c3ccccc3)C(C)C)o2)c1 [CE2232, Benzyloxycarbonyl-L-valyl-N-(phenyl)glycyl-N-[1-(2-[5-(3-methylbenzyl)-1,3,4-oxadiazolyl]carbonyl)-2-(S)-methylpropyl]amide]
5 |  | 0.161 |  |  |  |  | BTD-[1-(2-[5-(3-methylbenzyl)-1,3,4-oxadiazolyl]carbonyl)-2-(S)-methylpropyl]amide [CE2126]

Compound | Ki [1] [nM] | concentration at 3 h ([2]; male, Sprague-Dawley, plasma) [µM] | Plasma Levels (μM) 3 hr [2] [µM] | Plasma Levels (μM) 1 hr ([2]; 1 hr) [µM] | Plasma Levels (μM) 6 hr ([2]; 6 hr) [µM] | concentration at 1 h ([2]; male, Sprague-Dawley, plasma, 1 hr, read-out: Plasma Levels (μM) 1 hr) [µM] | concentration at 6 h ([2]; male, Sprague-Dawley, plasma, 6 hr, read-out: Plasma Levels (μM) 6 hr) [µM]
CC(C)OC(=O)N[C@H](C(=O)N1CCC[C@H]1C(=O)N[C@H](C(=O)c1noc(Cc2cccc(C(F)(F)F)c2)n1)C(C)C)C(C)C [CE2207, Isopropytoxycarbonyl-L-valyl-N-[1-(3-[5-(3-trifluoromethylbenzyl)-1,2,4-oxadiazolyl]carbonyl)-2-(S)-methylpropyl]-L-prolinamide] | 1.2 | 0 |  |  |  |  | 
